From PubChem BioAssay (NCI)
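GI50: concentration for 50% inhibition of growth. TGI is the concentration that stops growth completely.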

Columns and labels:
Test in all cases: NCI tumour cell line growth inhibition, 384-well format
T-47D breast = tested on: T-47D breast
EKVX NSCLC = tested on: EKVX NSCLC
HOP-92 NSCLC = tested on: HOP-92 NSCLC
OVCAR-3 ovarian = tested on: OVCAR-3 ovarian
SNB-19 CNS = tested on: SNB-19 CNS
MALME-3M melanoma = tested on: MALME-3M melanoma
A549 NSCLC = tested on: A549 NSCLC
SF-539 CNS = tested on: SF-539 CNS
HL-60(TB) leukemia = tested on: HL-60(TB) leukemia
NCI-H322M lung = tested on: NCI-H322M lung
SK-MEL-5 melanoma = tested on: SK-MEL-5 melanoma
NCI-H226 lung = tested on: NCI-H226 lung
M14 melanoma = tested on: M14 melanoma
SF-268 CNS = tested on: SF-268 CNS
IGROV1 ovarian = tested on: IGROV1 ovarian
UO-31 renal = tested on: UO-31 renal
SK-MEL-28 melanoma = tested on: SK-MEL-28 melanoma
SN12C renal = tested on: SN12C renal
MDA-MB-435 melanoma = tested on: MDA-MB-435 melanoma
HCT-15 colon = tested on: HCT-15 colon
RPMI-8226 leukemia = tested on: RPMI-8226 leukemia
RXF 393 renal = tested on: RXF 393 renal
CAKI-1 renal = tested on: CAKI-1 renal
COLO 205 colon = tested on: COLO 205 colon
MOLT-4 leukemia = tested on: MOLT-4 leukemia
SW-620 colon = tested on: SW-620 colon
NCI-H460 NSCLC = tested on: NCI-H460 NSCLC
KM12 colon = tested on: KM12 colon
MDA-MB-231 breast = tested on: MDA-MB-231 breast
A498 renal = tested on: A498 renal
HOP-62 NSCLC = tested on: HOP-62 NSCLC
NCI-H23 lung = tested on: NCI-H23 lung
PC-3 prostate = tested on: PC-3 prostate
786-0 renal = tested on: 786-0 renal
DU-145 prostate = tested on: DU-145 prostate
SK-OV-3 ovarian = tested on: SK-OV-3 ovarian
CCRF-CEM leukemia = tested on: CCRF-CEM leukemia
OVCAR-5 ovarian = tested on: OVCAR-5 ovarian
HS 578T breast = tested on: HS 578T breast
SNB-75 CNS = tested on: SNB-75 CNS
TK-10 renal = tested on: TK-10 renal
NCI-H522 lung = tested on: NCI-H522 lung
ACHN renal = tested on: ACHN renal
HCC-2998 colon = tested on: HCC-2998 colon
MCF7 breast = tested on: MCF7 breast
LOX IMVI melanoma = tested on: LOX IMVI melanoma
HCT-116 colon = tested on: HCT-116 colon
HT29 colon = tested on: HT29 colon
NCI/ADR-RES ovarian = tested on: NCI/ADR-RES ovarian
OVCAR-8 ovarian = tested on: OVCAR-8 ovarian
SF-295 CNS = tested on: SF-295 CNS
OVCAR-4 ovarian = tested on: OVCAR-4 ovarian
BT-549 breast = tested on: BT-549 breast
UACC-62 melanoma = tested on: UACC-62 melanoma
U251 glioblastoma = tested on: U251 glioblastoma
K-562 leukemia = tested on: K-562 leukemia
UACC-257 melanoma = tested on: UACC-257 melanoma

## CNC(=O)c1ccccc1Nc1cc(Nc2ccc(N3CCOCC3)cc2OC)ncc1C(F)(F)F
T-47D breast
  GI50: 9.99 µM
  TGI: 23.3 µM
EKVX NSCLC
  GI50: 653 nM
  TGI: 11.8 µM
HOP-92 NSCLC
  GI50: 1020 nM
  TGI: 10.2 µM
OVCAR-3 ovarian
  GI50: 4.45 µM
  TGI: 37.9 µM
SNB-19 CNS
  GI50: 10.9 µM
  TGI: > 100 µM
MALME-3M melanoma
  GI50: 303 nM
  TGI: 15.1 µM
A549 NSCLC
  GI50: 371 nM
  TGI: 13 µM
SF-539 CNS
  GI50: 1700 nM
  TGI: 16.8 µM
HL-60(TB) leukemia
  GI50: 375 nM
  TGI: 1430 nM
NCI-H322M lung
  GI50: 5.28 µM
  TGI: 46.2 µM
SK-MEL-5 melanoma
  GI50: 767 nM
  TGI: 18 µM
NCI-H226 lung
  GI50: 876 nM
  TGI: > 100 µM
M14 melanoma
  GI50: 233 nM
  TGI: 11.1 µM
SF-268 CNS
  GI50: 143 nM
  TGI: 1670 nM
IGROV1 ovarian
  GI50: 229 nM
  TGI: 12.4 µM
UO-31 renal
  GI50: 2900 nM
  TGI: 16.9 µM
SK-MEL-28 melanoma
  GI50: 2000 nM
  TGI: 16.7 µM
SN12C renal
  GI50: 3.31 µM
  TGI: 27.1 µM
MDA-MB-435 melanoma
  GI50: 752 nM
  TGI: > 100 µM
HCT-15 colon
  GI50: 2880 nM
  TGI: 34.2 µM
RPMI-8226 leukemia
  GI50: 350 nM
  TGI: 3.3 µM
RXF 393 renal
  GI50: 2820 nM
  TGI: 14 µM
CAKI-1 renal
  GI50: 6.33 µM
  TGI: 21 µM
COLO 205 colon
  GI50: 309 nM
  TGI: 1850 nM
MOLT-4 leukemia
  GI50: 969 nM
  TGI: 10.5 µM
SW-620 colon
  GI50: 658 nM
  TGI: 12.6 µM
NCI-H460 NSCLC
  GI50: 316 nM
  TGI: 10.6 µM
KM12 colon
  GI50: 523 nM
  TGI: 8.06 µM
MDA-MB-231 breast
  GI50: 2760 nM
  TGI: 49.2 µM
A498 renal
  GI50: 11 µM
  TGI: 28.3 µM
HOP-62 NSCLC
  GI50: 2620 nM
  TGI: 51.3 µM
NCI-H23 lung
  GI50: 277 nM
  TGI: 9.47 µM
PC-3 prostate
  GI50: 15.9 µM
  TGI: > 100 µM
786-0 renal
  GI50: 2750 nM
  TGI: 19.8 µM
DU-145 prostate
  GI50: 1970 nM
  TGI: 24.3 µM
SK-OV-3 ovarian
  GI50: 5.44 µM
  TGI: 41.9 µM
CCRF-CEM leukemia
  GI50: 722 nM
  TGI: 11.5 µM
OVCAR-5 ovarian
  GI50: 660 nM
  TGI: 27.5 µM
HS 578T breast
  GI50: 2780 nM
  TGI: 10.1 µM
SNB-75 CNS
  GI50: 4.25 µM
  TGI: 21.4 µM
TK-10 renal
  GI50: 7.3 µM
  TGI: 32 µM
NCI-H522 lung
  GI50: 877 nM
  TGI: 20.4 µM
ACHN renal
  GI50: 5.62 µM
  TGI: 69.7 µM
HCC-2998 colon
  GI50: 654 nM
  TGI: 15.8 µM
MCF7 breast
  GI50: 447 nM
  TGI: 18.5 µM
LOX IMVI melanoma
  GI50: 1230 nM
  TGI: 12.1 µM
HCT-116 colon
  GI50: 632 nM
  TGI: 13.2 µM
HT29 colon
  GI50: 416 nM
  TGI: 14.1 µM
NCI/ADR-RES ovarian
  GI50: 1520 nM
  TGI: 4.64 µM
OVCAR-8 ovarian
  GI50: 4.08 µM
  TGI: 19.8 µM
SF-295 CNS
  GI50: 2120 nM
  TGI: 38.7 µM
OVCAR-4 ovarian
  GI50: 16.1 µM
  TGI: > 100 µM
BT-549 breast
  GI50: 2820 nM
  TGI: 9.86 µM
UACC-62 melanoma
  GI50: 354 nM
  TGI: 14.4 µM
U251 glioblastoma
  GI50: 4.4 µM
  TGI: 48 µM
K-562 leukemia
  GI50: 2690 nM
  TGI: > 100 µM
UACC-257 melanoma
  GI50: 397 nM
  TGI: 23.3 µM
